Assays:
Assay type in all cases: biochemical
HDAC2 = HDAC2 (Homo sapiens, UniProt Q92769); experiment: HDAC enzymatic assay, HDAC2; details: fluorogenic tetrapeptide RHKKAc substrate 10 μM; read-out: HDAC isoforms IC50 (nM), 2
Method: (§1) Each compound was dissolved in DMSO, and progressively diluted solutions were used for testing. […] Upon its deacetylation, the fluorophore was released given rise to fluorescence emission which was detected by a fluorimeter, and the IC50 values of the compounds were determined by analyzing dose-response inhibition curves.

[1] = target: T1, HDAC3 (complex of full length human HDAC3 with human NCOR2 amino acids 395-489) (Homo sapiens, UniProt O15379); experiment: HDAC enzymatic assay, HDAC3; details: fluorogenic tetrapeptide RHKKAc substrate 10 μM; read-out: HDAC isoforms IC50 (nM), 3
T1 construct: complex of full length human HDAC3 with a C-terminal His-tag; His-tag (C); host or cells: baculovirus expression system
T1 sequence (O15379 whole entry, the tested form may be a part, canonical isoform): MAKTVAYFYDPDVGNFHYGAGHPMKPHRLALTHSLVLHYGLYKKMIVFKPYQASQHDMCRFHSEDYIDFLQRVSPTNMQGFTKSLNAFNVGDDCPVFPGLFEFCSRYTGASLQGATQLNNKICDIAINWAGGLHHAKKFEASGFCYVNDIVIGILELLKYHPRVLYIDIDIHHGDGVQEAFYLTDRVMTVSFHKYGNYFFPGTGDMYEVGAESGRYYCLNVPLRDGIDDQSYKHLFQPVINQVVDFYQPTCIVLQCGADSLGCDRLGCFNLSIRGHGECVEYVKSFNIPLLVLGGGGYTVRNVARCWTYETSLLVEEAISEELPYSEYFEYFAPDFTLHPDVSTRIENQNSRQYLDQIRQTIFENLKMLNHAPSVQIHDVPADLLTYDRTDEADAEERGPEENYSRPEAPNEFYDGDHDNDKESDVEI
T1 sequence (Q9Y618 395-489 partner limits assumed): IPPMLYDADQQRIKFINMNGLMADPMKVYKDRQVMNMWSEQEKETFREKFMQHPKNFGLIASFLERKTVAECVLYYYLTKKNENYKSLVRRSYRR
Method: as §1

HDAC4 = HDAC4 (Homo sapiens, UniProt P56524); experiment: HDAC enzymatic assay, HDAC4; details: fluorogenic tetrapeptide RHKKAc substrate 10 μM; read-out: HDAC isoforms IC50 (nM), 4
Chain of HDAC4 (P56524 whole entry, canonical isoform): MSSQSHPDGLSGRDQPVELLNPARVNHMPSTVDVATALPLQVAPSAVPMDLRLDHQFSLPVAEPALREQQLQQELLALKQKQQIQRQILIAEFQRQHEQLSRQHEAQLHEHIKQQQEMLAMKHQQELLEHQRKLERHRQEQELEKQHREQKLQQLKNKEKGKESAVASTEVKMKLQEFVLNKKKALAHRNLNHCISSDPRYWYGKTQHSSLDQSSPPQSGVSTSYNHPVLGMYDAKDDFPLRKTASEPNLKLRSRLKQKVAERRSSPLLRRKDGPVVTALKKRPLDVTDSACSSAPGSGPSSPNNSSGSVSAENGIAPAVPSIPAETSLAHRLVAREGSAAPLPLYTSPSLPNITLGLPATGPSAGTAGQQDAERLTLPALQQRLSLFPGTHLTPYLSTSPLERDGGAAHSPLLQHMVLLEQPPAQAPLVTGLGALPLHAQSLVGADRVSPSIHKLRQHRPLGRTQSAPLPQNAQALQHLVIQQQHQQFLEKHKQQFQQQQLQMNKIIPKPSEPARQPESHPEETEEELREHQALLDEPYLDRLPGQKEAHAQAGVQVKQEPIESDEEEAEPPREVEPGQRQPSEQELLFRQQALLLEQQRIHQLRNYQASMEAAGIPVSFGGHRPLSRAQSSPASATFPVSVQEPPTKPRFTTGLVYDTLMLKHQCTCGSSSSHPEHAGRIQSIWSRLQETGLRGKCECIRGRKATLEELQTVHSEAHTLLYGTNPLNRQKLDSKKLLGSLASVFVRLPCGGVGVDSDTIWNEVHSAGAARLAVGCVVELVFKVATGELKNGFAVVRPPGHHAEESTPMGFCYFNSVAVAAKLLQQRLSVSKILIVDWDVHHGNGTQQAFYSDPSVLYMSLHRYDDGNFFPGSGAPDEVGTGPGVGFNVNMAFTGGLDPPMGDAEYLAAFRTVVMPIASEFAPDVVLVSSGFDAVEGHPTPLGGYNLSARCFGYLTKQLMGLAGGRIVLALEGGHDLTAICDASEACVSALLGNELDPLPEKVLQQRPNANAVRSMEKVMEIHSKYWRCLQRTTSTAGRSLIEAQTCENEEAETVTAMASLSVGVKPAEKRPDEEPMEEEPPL
Method: as §1

HDAC5 = HDAC5 (Homo sapiens, UniProt Q9UQL6); experiment: HDAC enzymatic assay, HDAC5; details: fluorogenic tetrapeptide RHKKAc substrate 10 μM; read-out: HDAC isoforms IC50 (nM), 5
Chain of HDAC5 (Q9UQL6 whole entry, canonical isoform): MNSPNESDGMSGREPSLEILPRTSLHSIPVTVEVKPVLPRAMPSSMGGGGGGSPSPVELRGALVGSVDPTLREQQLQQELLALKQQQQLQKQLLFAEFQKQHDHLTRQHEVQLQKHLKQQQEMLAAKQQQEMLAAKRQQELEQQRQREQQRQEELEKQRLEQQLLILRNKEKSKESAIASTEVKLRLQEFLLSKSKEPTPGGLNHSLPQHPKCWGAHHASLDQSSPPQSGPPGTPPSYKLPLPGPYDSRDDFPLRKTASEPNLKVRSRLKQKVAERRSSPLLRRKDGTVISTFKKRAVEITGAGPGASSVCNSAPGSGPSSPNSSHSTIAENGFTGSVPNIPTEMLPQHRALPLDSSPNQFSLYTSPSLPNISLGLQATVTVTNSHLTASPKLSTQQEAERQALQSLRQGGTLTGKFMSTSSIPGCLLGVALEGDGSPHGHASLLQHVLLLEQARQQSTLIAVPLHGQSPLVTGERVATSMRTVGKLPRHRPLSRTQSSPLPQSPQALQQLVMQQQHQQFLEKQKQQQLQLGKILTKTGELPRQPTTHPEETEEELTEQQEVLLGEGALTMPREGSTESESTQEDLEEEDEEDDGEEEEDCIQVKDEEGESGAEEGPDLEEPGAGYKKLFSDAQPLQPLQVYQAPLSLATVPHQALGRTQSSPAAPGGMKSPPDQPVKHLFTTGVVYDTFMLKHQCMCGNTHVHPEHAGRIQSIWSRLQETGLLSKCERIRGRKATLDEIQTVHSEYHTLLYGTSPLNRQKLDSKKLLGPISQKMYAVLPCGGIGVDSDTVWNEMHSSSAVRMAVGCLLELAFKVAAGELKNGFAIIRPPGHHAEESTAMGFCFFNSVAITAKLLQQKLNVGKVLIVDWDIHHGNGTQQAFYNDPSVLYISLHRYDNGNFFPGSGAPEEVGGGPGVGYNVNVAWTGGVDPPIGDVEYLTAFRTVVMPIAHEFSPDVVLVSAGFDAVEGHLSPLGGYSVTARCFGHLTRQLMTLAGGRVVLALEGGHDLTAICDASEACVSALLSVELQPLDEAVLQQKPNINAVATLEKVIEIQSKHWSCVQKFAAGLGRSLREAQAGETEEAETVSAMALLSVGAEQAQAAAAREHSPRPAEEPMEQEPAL
Method: as §1

HDAC8 = target: T2, HDAC8 (Homo sapiens, UniProt Q9BY41); experiment: HDAC enzymatic assay, HDAC8; details: fluorogenic tetrapeptide RHKKAc substrate 10 μM; read-out: HDAC isoforms IC50 (nM), 8
T2 sequence (Q9BY41 1-377): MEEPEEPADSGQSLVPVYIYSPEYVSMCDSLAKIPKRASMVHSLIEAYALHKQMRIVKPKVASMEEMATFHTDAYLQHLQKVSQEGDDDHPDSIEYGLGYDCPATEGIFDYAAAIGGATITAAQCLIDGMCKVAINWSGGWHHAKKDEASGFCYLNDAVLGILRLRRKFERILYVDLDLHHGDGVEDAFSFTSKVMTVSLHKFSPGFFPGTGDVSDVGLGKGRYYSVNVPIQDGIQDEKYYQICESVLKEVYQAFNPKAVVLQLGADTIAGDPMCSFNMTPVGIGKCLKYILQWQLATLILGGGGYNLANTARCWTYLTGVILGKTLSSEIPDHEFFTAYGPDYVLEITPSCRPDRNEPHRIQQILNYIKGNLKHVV
Method: as §1

HDAC9 = HDAC9 (Homo sapiens, UniProt Q9UKV0); experiment: HDAC enzymatic assay, HDAC9; details: fluorogenic tetrapeptide RHKKAc substrate 10 μM; read-out: HDAC isoforms IC50 (nM), 9
Chain of HDAC9 (Q9UKV0 whole entry, canonical isoform): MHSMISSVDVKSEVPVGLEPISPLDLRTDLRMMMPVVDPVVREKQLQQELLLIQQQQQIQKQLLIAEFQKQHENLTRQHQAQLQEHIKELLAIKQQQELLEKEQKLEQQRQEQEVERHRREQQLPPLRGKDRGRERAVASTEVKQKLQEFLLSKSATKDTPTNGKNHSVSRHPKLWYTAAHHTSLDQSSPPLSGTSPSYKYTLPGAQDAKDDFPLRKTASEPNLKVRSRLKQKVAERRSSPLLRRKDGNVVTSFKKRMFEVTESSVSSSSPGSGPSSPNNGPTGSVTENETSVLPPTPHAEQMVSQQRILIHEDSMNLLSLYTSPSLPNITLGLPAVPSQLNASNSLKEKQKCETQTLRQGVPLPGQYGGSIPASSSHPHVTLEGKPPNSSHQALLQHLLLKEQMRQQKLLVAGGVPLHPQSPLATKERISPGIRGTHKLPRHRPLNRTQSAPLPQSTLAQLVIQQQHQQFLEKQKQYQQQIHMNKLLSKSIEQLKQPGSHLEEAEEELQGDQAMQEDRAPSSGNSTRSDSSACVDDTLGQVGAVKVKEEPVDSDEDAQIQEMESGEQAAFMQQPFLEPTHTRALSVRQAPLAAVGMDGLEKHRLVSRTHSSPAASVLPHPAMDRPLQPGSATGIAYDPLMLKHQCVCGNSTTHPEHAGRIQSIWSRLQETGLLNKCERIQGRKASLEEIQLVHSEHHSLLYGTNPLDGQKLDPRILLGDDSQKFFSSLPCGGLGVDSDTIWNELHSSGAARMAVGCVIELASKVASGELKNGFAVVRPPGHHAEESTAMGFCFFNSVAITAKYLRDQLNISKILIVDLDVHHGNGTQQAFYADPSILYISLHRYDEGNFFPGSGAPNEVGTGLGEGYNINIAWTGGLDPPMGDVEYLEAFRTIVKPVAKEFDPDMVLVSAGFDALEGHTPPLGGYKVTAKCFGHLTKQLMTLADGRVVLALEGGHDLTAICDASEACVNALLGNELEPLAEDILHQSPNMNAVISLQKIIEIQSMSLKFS
Method: as §1

HDAC10 = target: T3, HDAC10 (Homo sapiens, UniProt Q969S8); experiment: HDAC enzymatic assay, HDAC10; details: fluorogenic tetrapeptide RHKKAc substrate 10 μM; read-out: HDAC isoforms IC50 (nM), 10
T3 sequence (Q969S8 1-669): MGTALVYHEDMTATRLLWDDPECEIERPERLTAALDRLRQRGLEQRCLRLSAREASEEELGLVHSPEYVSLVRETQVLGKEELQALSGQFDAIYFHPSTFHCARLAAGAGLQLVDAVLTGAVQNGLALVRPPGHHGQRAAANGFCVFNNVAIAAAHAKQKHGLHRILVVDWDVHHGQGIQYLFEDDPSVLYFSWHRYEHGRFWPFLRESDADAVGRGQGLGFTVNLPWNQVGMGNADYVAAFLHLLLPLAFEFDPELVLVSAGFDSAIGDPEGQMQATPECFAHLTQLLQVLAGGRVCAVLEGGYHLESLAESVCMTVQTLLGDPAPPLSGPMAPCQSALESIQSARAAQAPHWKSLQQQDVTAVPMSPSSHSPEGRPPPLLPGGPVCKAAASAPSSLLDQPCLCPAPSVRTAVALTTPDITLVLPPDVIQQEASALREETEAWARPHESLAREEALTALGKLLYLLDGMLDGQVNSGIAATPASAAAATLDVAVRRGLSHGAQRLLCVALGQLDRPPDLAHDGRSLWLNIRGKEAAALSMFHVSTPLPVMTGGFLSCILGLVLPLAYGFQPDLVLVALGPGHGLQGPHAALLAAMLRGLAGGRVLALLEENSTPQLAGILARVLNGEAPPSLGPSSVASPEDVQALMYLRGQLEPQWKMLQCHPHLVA
Method: as §1

HDAC11 = target: T4, HDAC11 (Homo sapiens, UniProt Q96DB2); experiment: HDAC enzymatic assay, HDAC11; details: fluorogenic tetrapeptide RHKKAc substrate 10 μM; read-out: HDAC isoforms IC50 (nM), 11
T4 sequence (Q96DB2 1-347): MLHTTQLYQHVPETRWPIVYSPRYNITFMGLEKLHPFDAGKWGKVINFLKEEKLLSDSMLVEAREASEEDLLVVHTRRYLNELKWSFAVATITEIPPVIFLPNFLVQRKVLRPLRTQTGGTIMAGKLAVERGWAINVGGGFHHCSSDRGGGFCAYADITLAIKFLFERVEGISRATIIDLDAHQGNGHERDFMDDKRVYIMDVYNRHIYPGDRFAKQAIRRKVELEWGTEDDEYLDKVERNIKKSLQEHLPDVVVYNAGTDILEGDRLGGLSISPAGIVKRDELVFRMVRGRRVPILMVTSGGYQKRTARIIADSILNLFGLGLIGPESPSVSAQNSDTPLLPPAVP
Method: as §1

Chain of HDAC2 (Q92769 whole entry, canonical isoform): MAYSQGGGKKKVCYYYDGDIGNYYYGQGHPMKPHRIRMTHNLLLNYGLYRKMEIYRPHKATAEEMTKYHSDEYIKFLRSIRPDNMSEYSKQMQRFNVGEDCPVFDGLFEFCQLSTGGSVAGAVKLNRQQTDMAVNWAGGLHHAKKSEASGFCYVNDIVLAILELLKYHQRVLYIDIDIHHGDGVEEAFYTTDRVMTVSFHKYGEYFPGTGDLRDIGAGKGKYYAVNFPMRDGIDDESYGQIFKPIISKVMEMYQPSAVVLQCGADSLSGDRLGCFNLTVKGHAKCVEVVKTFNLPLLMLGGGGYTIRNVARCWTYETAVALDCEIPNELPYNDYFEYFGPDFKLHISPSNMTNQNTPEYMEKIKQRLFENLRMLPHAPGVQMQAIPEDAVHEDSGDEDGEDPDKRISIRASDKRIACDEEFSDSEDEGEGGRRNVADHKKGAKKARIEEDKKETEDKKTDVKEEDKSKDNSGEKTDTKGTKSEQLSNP

Compound	IC50 (HDAC2)	IC50 [1]	IC50 (HDAC4)	IC50 (HDAC5)	IC50 (HDAC8)	IC50 (HDAC9)	IC50 (HDAC10)	IC50 (HDAC11)
O=C1CCC[C@@H](C(=O)N[C@@H](CCCCCS)C(=O)NC2CCCC2)N1 [Example 24, (S)-6-Oxo-piperidine-2-carboxylic acid ((S)-1-cyclopentylcarbamoyl-6-mercapto-hexyl)amide]	100 to 500 nM	50 to 100 nM	< 50 nM	100 to 500 nM	100 to 500 nM	< 50 nM	100 to 500 nM	50 to 100 nM
O=C1CCC[C@@H](C(=O)N[C@@H](CCCCCS)C(=O)NCc2cccc(OCc3ccccc3)c2)N1 [Example 25, (S)-6-Oxo-piperidine-2-carboxylic acid [(S)-1-(3-benzyloxy-benzylcarbamoyl)-6-mercapto-hexyl]-amide]	100 to 500 nM	100 to 500 nM	100 to 500 nM	100 to 500 nM	< 50 nM	100 to 500 nM	100 to 500 nM	100 to 500 nM
O=C1NC[C@@H](c2ccccc2)[C@H]1C(=O)N[C@@H](CCCCCS)C(=O)Nc1ccccc1 [Example 29, (3R,4R)-2-Oxo-4-phenyl-pyrrolidine-3-carboxylic acid ((S)-6-mercapto-1-phenylcarbamoyl-hexyl)-amide]	100 to 500 nM	50 to 100 nM	< 50 nM	100 to 500 nM	100 to 500 nM	50 to 100 nM	< 50 nM	< 50 nM
O=C1CCC[C@@H](C(=O)N[C@@H](CCCCCS)C(=O)NCc2ccc(C(F)(F)F)cc2)N1 [Example 26, (S)-6-Oxo-piperidine-2-carboxylic acid [(S)-6-mercapto-1-(4-trifluoromethyl-benzylcarbamoyl)-hexyl]-amide]	100 to 500 nM	100 to 500 nM	< 50 nM	100 to 500 nM	< 50 nM	100 to 500 nM	100 to 500 nM	100 to 500 nM
O=C1NC[C@H](c2ccccc2)[C@H]1C(=O)N[C@@H](CCCCCS)C(=O)Nc1ccccc1 [Example 30, (3R,4S)-2-Oxo-4-phenyl-pyrrolidine-3-carboxylic acid ((S)-6-mercapto-1-phenylcarbamoyl-hexyl)-amide]	100 to 500 nM	50 to 100 nM	< 50 nM	100 to 500 nM	100 to 500 nM	50 to 100 nM	< 50 nM	< 50 nM
O=C1CCC[C@@H](C(=O)N[C@@H](CCCCCS)C(=O)Nc2ccccc2)N1 [Example 23, (S)-6-Oxo-piperidine-2-carboxylic acid ((S)-6-mercapto-1-phenylcarbamoyl-hexyl)amide]	50 to 100 nM	< 50 nM	< 50 nM	< 50 nM	100 to 500 nM	< 50 nM	< 50 nM	< 50 nM
O=C1C[C@@H](C(=O)N[C@@H](CCCCCS)C(=O)Nc2ccccc2)N1 [Example 27, (S)-4-Oxo-azetidine-2-carboxylic acid ((S)-6-mercapto-1-phenylcarbamoyl-hexyl)amide]	50 to 100 nM	< 50 nM	100 to 500 nM	< 50 nM	50 to 100 nM	< 50 nM	< 50 nM	< 50 nM

Further lines, results first:

IC50 (HDAC2)	IC50 [1]	IC50 (HDAC4)	IC50 (HDAC5)	IC50 (HDAC8)	IC50 (HDAC9)	IC50 (HDAC10)	IC50 (HDAC11)	Compound
50 to 100 nM	< 50 nM	100 to 500 nM	< 50 nM	100 to 500 nM	< 50 nM	< 50 nM	< 50 nM	Cc1ccc(NC(=O)[C@H](CCCCCS)NC(=O)[C@@H]2CCCC(=O)N2)cc1 [Example 39, (S)-6-Oxo-piperidine-2-carboxylic acid ((S)-6-mercapto-1-p-tolylcarbamoyl-hexyl)amide]
< 50 nM	< 50 nM	100 to 500 nM	< 50 nM	100 to 500 nM	< 50 nM	< 50 nM	< 50 nM	Cc1cccc(NC(=O)[C@H](CCCCCS)NC(=O)[C@@H]2CCCC(=O)N2)c1 [Example 38, (S)-6-Oxo-piperidine-2-carboxylic acid ((S)-6-mercapto-1-m-tolylcarbamoyl-hexyl)amide]
< 50 nM	< 50 nM	< 50 nM	< 50 nM	100 to 500 nM	< 50 nM	< 50 nM	< 50 nM	O=C1NCCC[C@@H]1C(=O)N[C@@H](CCCCCS)C(=O)Nc1ccccc1 [Example 36, (S)-2-Oxo-piperidine-3-carboxylic acid ((S)-6-mercapto-1-phenylcarbamoyl-hexyl)amide]
100 to 500 nM	100 to 500 nM	< 50 nM	100 to 500 nM	< 50 nM	100 to 500 nM	50 to 100 nM	50 to 100 nM	Cc1cccc(CCNC(=O)[C@H](CCCCCS)NC(=O)[C@@H]2CCCC(=O)N2)c1 [Example 34, (S)-6-Oxo-piperidine-2-carboxylic acid [(S)-6-mercapto-1-(2-m-tolyl-ethylcarbamoyl)hexyl]-amide]
< 50 nM	100 to 500 nM	< 50 nM	100 to 500 nM	100 to 500 nM	100 to 500 nM	100 to 500 nM	100 to 500 nM	O=C1CCC[C@@H](C(=O)N[C@@H](CCCCCS)C(=O)N2CCc3ccccc3C2)N1 [Example 32, (S)-6-Oxo-piperidine-2-carboxylic acid [(S)-1-(3,4-dihydro-1H-isoquinoline-2-carbonyl)-6-mercapto-hexyl]-amide]
< 50 nM	< 50 nM	< 50 nM	< 50 nM	50 to 100 nM	< 50 nM	< 50 nM	< 50 nM	O=C1NCCC[C@H]1C(=O)N[C@@H](CCCCCS)C(=O)Nc1ccccc1 [Example 35, (R)-2-Oxo-piperidine-3-carboxylic acid ((S)-6-mercapto-1-phenylcarbamoyl-hexyl)amide]

From patent publication US8927533B2, “Thio derivatives bearing lactams as potent HDAC inhibitors and their uses as medicaments” (SIGMA-TAU Industrie Farmaceutiche Riunite S.p.A., priority 2011, dated 2015)
